Experimental data taken from patent publication US10781182B2, “Compounds, process for obtaining the compounds, pharmaceutical composition, use of the compounds and method for treating psychiatric disorders and/or sleep disorders” (ACHÉ LABORATÓRIOS FARMACÊUTICOS S.A., priority 2016, dated 2020).

Assays:
[1] = oral, estimated, from literature; cited from earlier work
[2] = target: CYP2C9 (Homo sapiens (Human), UniProt P11712); test: CYP inhibition, fluorogenic substrate; assay type: in vitro ADME; set-up: dose or concentration left out as unconfirmed; conditions: recombinant CYP2C9, pH 7.4
CYP2C9, sequence (P11712 whole entry): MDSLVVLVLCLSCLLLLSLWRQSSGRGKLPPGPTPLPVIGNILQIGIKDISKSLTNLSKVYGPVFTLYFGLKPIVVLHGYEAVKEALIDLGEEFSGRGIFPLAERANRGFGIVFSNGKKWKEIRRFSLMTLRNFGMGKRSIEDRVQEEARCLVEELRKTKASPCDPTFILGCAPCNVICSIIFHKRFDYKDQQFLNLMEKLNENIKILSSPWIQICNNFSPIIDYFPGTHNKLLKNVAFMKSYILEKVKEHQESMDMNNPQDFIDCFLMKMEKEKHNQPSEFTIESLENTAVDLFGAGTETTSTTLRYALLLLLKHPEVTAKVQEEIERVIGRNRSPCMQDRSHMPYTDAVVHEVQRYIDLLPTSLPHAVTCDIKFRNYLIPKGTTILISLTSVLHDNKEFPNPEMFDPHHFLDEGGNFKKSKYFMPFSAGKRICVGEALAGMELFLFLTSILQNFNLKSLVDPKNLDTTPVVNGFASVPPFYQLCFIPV
From the text: (§1) The CYP inhibition test used fluorogenic substrates specific to each CYP to check for inhibition thereof by detection of the expected metabolite using a fluorimetric method. Recombinant CYPs (CYP2B6, CYP2C8, […], CYP2C19, CYP2D6, CYP3A4) from specific humans for each cytochrome family, subfamily and polypeptide were used. The following were used as substrates: CEC (3-Cyano-7-Ethoxycoumarin) which forms as metabolite CHC (3-Cyano-7-Hydroxycoumarin); EFC (7-Ethoxy-4-trifluoromethyl coumarin), forming the metabolite HFC (7-Hydroxytri fluoromethylcoumarin); DBF (Dibenzylfluorescein) and its respective fluorescein metabolite; MFC (7-Methoxy-4-trifluoromethylcoumarin) which forms the metabolite HFC (7-Hydroxytrifluoromethylcoumarin); BFC (7-Benzyloxy-Trifluoromethylcoumarin) and its metabolite HFC; and BzRes (benzyloxyresorufin) to form resofurine. The detection of the metabolite was done with a fluorimetric method: analytical technique to identify and characterize the amount of substance by excitation using a beam of ultraviolet light and measurement of the emitted fluorescence. For detection, a 96-well plate was used. Each sample was tested in two wells (n=2) as standard condition. At least 04 wells were separated for vehicle (control). Compounds were tested at a concentration […], standard for this assay. They were preincubated with a NADPH generator system in a phosphate buffer (pH 7.4) for 5 minutes at 37° C. The reaction was started by adding the specific CYP enzymes, substrate and bovine serum albumin (BSA<0.4 mg/ml). Incubations were performed between 20-50 minutes at 37° C. according to the specific parameter of each fluorogenic substrate, for the evaluated component. Fluorescence at each well was detected before and after the incubation period.

[3] = target: CYP2C19 (Homo sapiens (Human), UniProt P33261); test: CYP inhibition, fluorogenic substrate; assay type: in vitro ADME; set-up: dose or concentration left out as unconfirmed; conditions: recombinant CYP2C19, pH 7.4
CYP2C19, sequence (P33261 whole entry): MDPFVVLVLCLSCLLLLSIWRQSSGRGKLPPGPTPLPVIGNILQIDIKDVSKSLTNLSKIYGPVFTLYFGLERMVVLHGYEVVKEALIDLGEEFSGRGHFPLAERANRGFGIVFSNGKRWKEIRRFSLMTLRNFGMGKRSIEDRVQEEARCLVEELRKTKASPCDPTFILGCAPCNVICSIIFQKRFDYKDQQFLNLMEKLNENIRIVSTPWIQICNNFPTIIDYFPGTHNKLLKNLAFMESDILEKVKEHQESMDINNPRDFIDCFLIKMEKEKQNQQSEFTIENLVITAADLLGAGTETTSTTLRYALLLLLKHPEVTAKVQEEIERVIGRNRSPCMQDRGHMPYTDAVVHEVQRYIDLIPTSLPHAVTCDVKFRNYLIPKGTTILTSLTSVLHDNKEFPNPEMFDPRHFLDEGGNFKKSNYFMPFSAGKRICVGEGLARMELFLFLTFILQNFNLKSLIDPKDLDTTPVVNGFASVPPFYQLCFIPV
From the text: as §1

[4] = target: CYP2D6 (Homo sapiens (Human), UniProt P10635); test: CYP inhibition, fluorogenic substrate; assay type: in vitro ADME; set-up: dose or concentration left out as unconfirmed; conditions: recombinant CYP2D6, pH 7.4
CYP2D6, sequence (P10635 whole entry): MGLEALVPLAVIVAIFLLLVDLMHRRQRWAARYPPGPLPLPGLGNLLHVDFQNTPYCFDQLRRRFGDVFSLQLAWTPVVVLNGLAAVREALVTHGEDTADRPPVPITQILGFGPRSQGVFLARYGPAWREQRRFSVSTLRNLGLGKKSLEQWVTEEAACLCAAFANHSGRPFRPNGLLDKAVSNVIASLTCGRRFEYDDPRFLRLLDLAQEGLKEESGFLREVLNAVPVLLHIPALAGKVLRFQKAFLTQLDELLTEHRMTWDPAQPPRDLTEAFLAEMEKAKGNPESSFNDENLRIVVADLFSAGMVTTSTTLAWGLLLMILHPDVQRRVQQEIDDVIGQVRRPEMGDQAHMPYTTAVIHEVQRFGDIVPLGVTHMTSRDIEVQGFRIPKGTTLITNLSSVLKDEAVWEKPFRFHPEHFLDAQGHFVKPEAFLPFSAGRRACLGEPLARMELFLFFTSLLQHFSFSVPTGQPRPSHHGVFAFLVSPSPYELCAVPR
From the text: as §1

[5] = target: CYP2C8 (Homo sapiens (Human), UniProt P10632); test: CYP inhibition, fluorogenic substrate; assay type: in vitro ADME; set-up: dose or concentration left out as unconfirmed; conditions: recombinant CYP2C8, pH 7.4
CYP2C8, sequence (P10632 whole entry): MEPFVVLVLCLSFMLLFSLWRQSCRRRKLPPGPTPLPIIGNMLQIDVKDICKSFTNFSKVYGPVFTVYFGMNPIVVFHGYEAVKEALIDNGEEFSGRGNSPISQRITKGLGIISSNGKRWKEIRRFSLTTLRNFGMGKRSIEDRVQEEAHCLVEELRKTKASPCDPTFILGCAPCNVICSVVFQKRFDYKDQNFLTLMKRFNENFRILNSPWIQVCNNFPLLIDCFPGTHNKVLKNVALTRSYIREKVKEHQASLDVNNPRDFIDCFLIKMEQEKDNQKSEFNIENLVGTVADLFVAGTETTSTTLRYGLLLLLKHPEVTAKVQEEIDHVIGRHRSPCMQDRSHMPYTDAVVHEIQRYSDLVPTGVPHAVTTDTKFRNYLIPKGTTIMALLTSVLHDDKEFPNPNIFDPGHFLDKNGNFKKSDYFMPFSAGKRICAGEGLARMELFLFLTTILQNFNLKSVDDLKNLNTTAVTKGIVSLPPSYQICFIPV
From the text: as §1

[6] = target: CYP2B6 (Homo sapiens (Human), UniProt P20813); test: CYP inhibition, fluorogenic substrate; assay type: in vitro ADME; set-up: dose or concentration left out as unconfirmed; conditions: recombinant CYP2B6, pH 7.4
CYP2B6, sequence (P20813 whole entry): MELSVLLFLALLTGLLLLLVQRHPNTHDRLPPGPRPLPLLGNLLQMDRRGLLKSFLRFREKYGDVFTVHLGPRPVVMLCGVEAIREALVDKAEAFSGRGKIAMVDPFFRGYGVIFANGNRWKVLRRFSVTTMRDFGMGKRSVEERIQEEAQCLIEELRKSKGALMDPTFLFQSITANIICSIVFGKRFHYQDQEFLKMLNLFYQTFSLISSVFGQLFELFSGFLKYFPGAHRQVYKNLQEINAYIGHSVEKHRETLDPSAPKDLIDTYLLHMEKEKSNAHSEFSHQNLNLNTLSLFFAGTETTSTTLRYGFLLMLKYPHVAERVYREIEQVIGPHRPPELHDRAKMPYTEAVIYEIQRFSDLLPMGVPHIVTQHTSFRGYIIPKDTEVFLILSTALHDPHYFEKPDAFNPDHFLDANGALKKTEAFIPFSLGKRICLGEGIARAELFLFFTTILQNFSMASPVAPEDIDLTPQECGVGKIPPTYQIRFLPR
From the text: as §1

[7] = tested on: rat hepatocytes (Sprague-Dawley males); test: Intrinsic clearance in cryopreserved rat hepatocytes; assay type: in vitro ADME
Protocol: (§2) Cryopreserved hepatocytes from humans, rats (Sprague-Dawley males) and from mice (CD-1 males) were used for incubation at different times (0, 0.5, 1, 1.5, 2 hours) at 37° C. followed by HPLC-MS/MS detection. The aim was to verify the clearance time of the test substance on hepatocytes. The experiment was performed on a 96-well plate and the cryopreserved hepatocytes were thawed and resuspended in Krebs-Heinslet buffer(pH 7.3). The reaction was started by adding each test compound to each cell suspension and performing the incubation at the times indicated above. The reaction was quenched with addition of acetonitrile in the wells and detection by HPLC-MS/MS (mass spectrometry). MS/MS is performed by combining two mass detectors into a single instrument.

[8] = tested on: CYP2C9 and CYP2C19; conditions: cited from earlier work
[9] = target: CYP1A2 (Homo sapiens (Human), UniProt P05177); test: CYP inhibition, fluorogenic substrate; assay type: in vitro ADME
CYP1A2, sequence (P05177 whole entry): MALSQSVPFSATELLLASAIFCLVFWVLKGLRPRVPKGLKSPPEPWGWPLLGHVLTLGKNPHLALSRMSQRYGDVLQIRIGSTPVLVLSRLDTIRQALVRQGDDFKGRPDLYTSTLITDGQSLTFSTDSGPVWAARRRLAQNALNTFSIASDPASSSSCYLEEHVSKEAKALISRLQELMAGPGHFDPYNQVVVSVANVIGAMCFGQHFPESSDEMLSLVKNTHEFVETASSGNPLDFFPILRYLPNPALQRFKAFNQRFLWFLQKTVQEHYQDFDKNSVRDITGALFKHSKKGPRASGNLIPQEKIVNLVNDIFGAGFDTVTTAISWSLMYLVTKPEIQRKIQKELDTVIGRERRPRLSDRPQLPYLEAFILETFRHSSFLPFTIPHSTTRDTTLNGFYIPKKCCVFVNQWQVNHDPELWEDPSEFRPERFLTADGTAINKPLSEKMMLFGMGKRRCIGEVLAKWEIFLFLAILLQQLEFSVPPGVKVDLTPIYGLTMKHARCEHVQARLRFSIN
From the text: as §1

[10] = tested on: human hepatocytes; test: Intrinsic clearance in cryopreserved human hepatocytes; assay type: in vitro ADME
Protocol: as §2

[11] = target: P450 cytochrome 1A2 (CYP1A2) (Homo sapiens (Human), UniProt P05177); conditions: cited from earlier work
P450 cytochrome 1A2 (CYP1A2), sequence (P05177 whole entry): as above

[12] = target: MT1 receptor (Homo sapiens (Human), UniProt P48039); test: MT1 functional assay; conditions: MT1 and MT2 receptors
MT1 receptor, sequence (P48039 whole entry): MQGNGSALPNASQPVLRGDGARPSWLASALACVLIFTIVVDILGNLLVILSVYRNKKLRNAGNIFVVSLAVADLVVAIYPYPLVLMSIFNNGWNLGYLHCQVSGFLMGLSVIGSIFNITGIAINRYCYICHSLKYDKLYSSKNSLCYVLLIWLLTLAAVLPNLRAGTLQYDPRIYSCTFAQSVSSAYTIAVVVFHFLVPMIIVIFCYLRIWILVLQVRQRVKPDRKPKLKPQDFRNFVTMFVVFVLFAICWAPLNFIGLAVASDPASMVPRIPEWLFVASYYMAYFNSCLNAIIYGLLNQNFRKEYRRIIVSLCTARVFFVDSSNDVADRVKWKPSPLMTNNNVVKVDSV

[13] = Pharmacokinetics (PK) in rat, I.V. and oral; assay type: in vivo, Wistar-Han rats
Protocol: […] The study lasted for 2 weeks (including acclimation time and study), in which the route of administration was made by injection into the caudal vein and oral gavage. The treatment was carried out in a single dose: I.V. group with dose of 1 mg/kg and Oral group with dose of 10 mg/kg. […] Clinical observations were made twice a day (morning and afternoon) in the pre-dose at the 08 time points defined in the protocol. Blood collection was performed after euthanasia in the pre-dose animals at 08 defined time points and at 24 hours post-dose. The pharmacokinetic analysis parameters detected for Group IV were: half-life (t½), drug concentration at time zero (C0), last measurable plasma concentration (AUClast), area under the plasma concentration curve extrapolation percentage (AUC % ext), area under the plasma concentration curve extrapolation to infinity (AUCinf), volume of distribution (Vz), steady state volume of distribution (Vss), clearance (CL) and mean residence time (MRT). The parameters evaluated for the Oral group were: bioavailability (F %), maximum concentration reached (Cmax), time to reach maximum plasma concentration (Tmax), last measurable plasma concentration (AUClast), area under the plasma concentration curve extrapolation percentage (AUC % ext), area under the plasma concentration curve extrapolation to infinity (AUCinf), area under the plasma concentration curve extrapolation to infinity versus dose (AUCinf/Dose), half-Life (t½), and mean residence time (MRT).

[14] = tested on: mouse hepatocytes (CD-1 males); test: Intrinsic clearance in cryopreserved mouse hepatocytes; assay type: in vitro ADME
Protocol: as §2

[15] = Wistar-Han, plasma, intravenous 1 mg/kg

inhibition [2]: -19.3% | inhibition [3]: 44.4% | inhibition [4]: 7.9% | inhibition [5]: 12.9% | inhibition [6]: 1.8% | Intrinsic clearance half-life, Rat Sprague-Dawley [7]: 50 min | affinity to cytochrome isoforms (in words) [9]: high affinity | Intrinsic clearance half-life, Human [10]: 48 min | intrinsic activity (agonist, antagonist or inverse agonist) [12]: agonist | clearance [13, 15]: 39.1 mL/min/kg | half-life [13, 15]: 17.7 min | AUC(0-t) ([13]; Wistar-Han, plasma, oral 10 mg/kg): 1020 ng·h/mL | bioavailability ([13]; Wistar-Han, plasma, oral 10 mg/kg vs intravenous 1 mg/kg, read-out: F (%) bioavailability): 22.6% | CL ([13]; intravenous 1 mg/kg): 39.1 mL/min/kg | T1/2 ([13]; intravenous 1 mg/kg): 17.7 min | AUClast ([13]; oral 10 mg/kg): 1025 ng·h/mL | F (%) bioavailability ([13]; oral 10 mg/kg vs intravenous 1 mg/kg): 22.6% | Intrinsic clearance half-life, Mouse CD-1 [14]: 25 min
Compound: COc1ccc2cccc(CCNC(C)=O)c2c1 [IA2-76, agomelatine, reference compound]
absolute bioavailability [1]: 1% | share metabolized by CYP2C9 and CYP2C19 [8]: 10% | share metabolized in the liver by CYP1A2 [11]: Around 90%
